Data taken from US11912701B2, “Protein kinase inhibitors for promoting liver regeneration or reducing or preventing hepatocyte death” (HEPAREGENIX GMBH, priority 2018, dated 2024).

Key:
MKK7 [1] = target: T1, MKK7 (Homo sapiens, UniProt O14733); assay: KINOMEscan competition binding assay, MKK7; set-up: M1/R419; host or cells: HEK-293; settings: ratio PoC (off-target)/PoC (MKK4)
T1 sequence (O14733 1-419): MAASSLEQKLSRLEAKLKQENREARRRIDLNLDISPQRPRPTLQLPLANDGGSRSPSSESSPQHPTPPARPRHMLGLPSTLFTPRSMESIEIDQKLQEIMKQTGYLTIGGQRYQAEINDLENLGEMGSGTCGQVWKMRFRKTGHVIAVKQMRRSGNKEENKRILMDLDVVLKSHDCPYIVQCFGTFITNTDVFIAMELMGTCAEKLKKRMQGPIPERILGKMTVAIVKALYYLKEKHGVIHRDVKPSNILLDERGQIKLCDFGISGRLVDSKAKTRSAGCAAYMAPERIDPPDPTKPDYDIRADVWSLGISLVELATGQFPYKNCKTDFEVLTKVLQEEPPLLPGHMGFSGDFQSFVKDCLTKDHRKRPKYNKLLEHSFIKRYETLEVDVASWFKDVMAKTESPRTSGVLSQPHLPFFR
Procedure, shortened: (§1)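 DNA-tagged kinases expressed in HEK-293 cells compete between immobilized ligand on blocked beads and test compound at 100 nM; kinase retained on beads quantified by qPCR of the tag.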

JNK1 [2] = target: T2, JNK1 (Homo sapiens, UniProt P45983); assay: KINOMEscan competition binding assay, JNK1; set-up: M1/Q384; host or cells: HEK-293; settings: ratio PoC (off-target)/PoC (MKK4)
Procedure, shortened: as §1
Target sequence in this assay (P45983 1-384 isoform P45983-2): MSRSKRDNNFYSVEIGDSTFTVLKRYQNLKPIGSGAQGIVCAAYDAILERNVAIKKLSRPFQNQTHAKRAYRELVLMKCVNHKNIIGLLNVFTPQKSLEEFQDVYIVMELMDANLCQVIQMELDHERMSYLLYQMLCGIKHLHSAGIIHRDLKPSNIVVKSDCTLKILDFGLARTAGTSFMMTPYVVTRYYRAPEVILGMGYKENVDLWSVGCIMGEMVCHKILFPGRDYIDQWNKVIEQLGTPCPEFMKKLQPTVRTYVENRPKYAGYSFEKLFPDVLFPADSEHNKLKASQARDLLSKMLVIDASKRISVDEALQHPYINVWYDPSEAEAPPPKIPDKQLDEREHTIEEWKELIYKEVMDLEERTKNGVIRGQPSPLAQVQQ

MKK4 [3] = target: T3, MKK4 (Homo sapiens, UniProt P45985); assay: KINOMEscan competition binding assay, MKK4; settings: residual percent of control binding (PoC) at 100 nM
T3 construct: S84/D399; host or cells: HEK-293
T3 sequence (P45985 84-399): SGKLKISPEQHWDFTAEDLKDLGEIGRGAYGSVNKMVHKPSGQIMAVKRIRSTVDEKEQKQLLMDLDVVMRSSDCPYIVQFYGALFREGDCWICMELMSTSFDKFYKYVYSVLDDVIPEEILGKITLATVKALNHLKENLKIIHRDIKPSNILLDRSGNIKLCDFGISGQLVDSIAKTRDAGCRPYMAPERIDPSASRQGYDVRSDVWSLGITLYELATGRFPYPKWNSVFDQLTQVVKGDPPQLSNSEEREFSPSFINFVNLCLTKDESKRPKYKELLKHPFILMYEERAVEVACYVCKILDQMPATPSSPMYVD
Procedure, shortened: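 Tested at 100 nM and reported as percent of control binding (PoC). MKK4 was produced in HEK-293 cells and DNA-tagged. Displacement from ligand-coated, blocked beads was read by qPCR of eluted kinase.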

MKK4 [4] = target: T4, MKK4 (Homo sapiens, UniProt P45985); assay: 33PanQinase enzyme assay, MKK4; assay type: biochemical; settings: assay 'IC50'; read-out: Potency MKK4 (IC50)
T4 construct: purchased ProQinase GmbH, Freiburg, Germany (33PanQinase Assay Service)
T4 sequence (P45985 1-399): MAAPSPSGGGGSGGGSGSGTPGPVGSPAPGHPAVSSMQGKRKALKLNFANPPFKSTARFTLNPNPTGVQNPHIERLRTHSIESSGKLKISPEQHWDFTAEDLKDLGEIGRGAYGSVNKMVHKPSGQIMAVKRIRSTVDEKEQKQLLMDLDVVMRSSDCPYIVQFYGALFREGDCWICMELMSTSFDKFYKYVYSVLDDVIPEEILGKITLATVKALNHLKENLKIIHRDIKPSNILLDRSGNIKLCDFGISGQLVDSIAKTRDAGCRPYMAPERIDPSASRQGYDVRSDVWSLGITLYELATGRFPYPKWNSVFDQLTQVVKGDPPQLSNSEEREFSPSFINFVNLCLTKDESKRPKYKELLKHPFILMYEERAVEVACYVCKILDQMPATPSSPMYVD
Procedure, shortened: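 Inhibition measured as 33Pi transfer to substrate after a 60-min, 30 °C reaction, acid-stopped and scintillation-counted.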

BRaf [5] = target: T5, BRaf (Homo sapiens, UniProt P15056); assay: KINOMEscan competition binding assay, BRaf; settings: ratio PoC (off-target)/PoC (MKK4)
T5 construct: purchased ProQinase GmbH, Freiburg, Germany (33PanQinase Assay Service)
T5 sequence (P15056 whole entry, species assumed): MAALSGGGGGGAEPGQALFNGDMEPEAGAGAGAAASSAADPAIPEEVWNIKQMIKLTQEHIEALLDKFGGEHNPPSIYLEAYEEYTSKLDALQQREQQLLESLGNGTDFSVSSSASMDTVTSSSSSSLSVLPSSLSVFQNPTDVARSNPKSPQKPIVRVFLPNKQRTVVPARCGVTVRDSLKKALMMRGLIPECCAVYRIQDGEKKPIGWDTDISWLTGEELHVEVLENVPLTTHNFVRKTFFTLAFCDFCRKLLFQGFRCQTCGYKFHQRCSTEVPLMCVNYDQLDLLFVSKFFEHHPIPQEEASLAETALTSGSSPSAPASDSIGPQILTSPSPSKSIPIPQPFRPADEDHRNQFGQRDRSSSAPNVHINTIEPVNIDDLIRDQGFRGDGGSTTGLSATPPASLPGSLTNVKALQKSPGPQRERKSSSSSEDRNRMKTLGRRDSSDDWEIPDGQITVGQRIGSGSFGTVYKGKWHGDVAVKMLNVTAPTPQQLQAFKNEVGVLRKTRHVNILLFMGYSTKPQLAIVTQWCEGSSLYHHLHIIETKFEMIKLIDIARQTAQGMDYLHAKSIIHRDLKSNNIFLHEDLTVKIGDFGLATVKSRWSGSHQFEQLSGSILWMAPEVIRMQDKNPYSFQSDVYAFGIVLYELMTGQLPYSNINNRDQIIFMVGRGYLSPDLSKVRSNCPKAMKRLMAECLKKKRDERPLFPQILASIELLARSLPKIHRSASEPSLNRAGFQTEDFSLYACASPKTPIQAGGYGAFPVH
Procedure, shortened: as §1

JNK1 [6] = target: T2, JNK1; assay: 33PanQinase enzyme assay, JNK1; assay type: biochemical; set-up: purchased ProQinase GmbH, Freiburg, Germany (33PanQinase Assay Service); settings: ratio IC50(JNK1)/IC50(MKK4)
Procedure, shortened: (§2)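 Off-target selectivity is the ratio IC50(off-target)/IC50(MKK4), with IC50 values from least-squares fitting and single-point data as % residual activity. Reactions of enzyme/substrate mix, ATP and compound ran 60 min at 30° C before H3PO4 stop; ^33P incorporation read on a scintillation counter.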
Target sequence in this assay (P45983 whole entry): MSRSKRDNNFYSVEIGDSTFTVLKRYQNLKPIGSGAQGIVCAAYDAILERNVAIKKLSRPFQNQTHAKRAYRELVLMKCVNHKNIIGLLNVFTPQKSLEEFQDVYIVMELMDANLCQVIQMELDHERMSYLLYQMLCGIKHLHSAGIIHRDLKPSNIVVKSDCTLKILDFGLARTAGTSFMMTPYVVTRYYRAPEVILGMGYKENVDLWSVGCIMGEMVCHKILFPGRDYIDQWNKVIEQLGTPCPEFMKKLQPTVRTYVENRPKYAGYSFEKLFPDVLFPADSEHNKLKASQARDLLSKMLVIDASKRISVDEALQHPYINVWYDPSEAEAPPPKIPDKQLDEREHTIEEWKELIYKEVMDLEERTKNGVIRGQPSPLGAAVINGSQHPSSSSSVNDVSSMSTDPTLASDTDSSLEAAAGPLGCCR

BRaf [7] = target: T5, BRaf; assay: 33PanQinase enzyme assay, BRaf; assay type: biochemical; settings: ratio IC50(BRaf)/IC50(MKK4)
Procedure, shortened: as §2

MKK7 [8] = target: T1, MKK7; assay: 33PanQinase enzyme assay, MKK7; assay type: biochemical; set-up: purchased ProQinase GmbH, Freiburg, Germany (33PanQinase Assay Service); settings: ratio IC50(MKK7)/IC50(MKK4)
Procedure, shortened: as §2

Row | selectivity based on % Ctrl @100 nM vs. MKK7 (MKK7 [1]) | selectivity based on % Ctrl @100 nM vs. JNK1 (JNK1 [2]) | MKK4 [% Ctrl @ 100 nM (MKK4 [3]) | IC50 (MKK4 [4]) [µM] | selectivity based on % Ctrl @100 nM vs. Braf (BRaf [5]) | Selectivity IVIKK7, IC50(off-target)/IC50(MKK4) (MKK7 [8]) | Structure (SMILES) | Selectivity JNK1, IC50(off-target)/IC50(MKK4) (JNK1 [6]) | Selectivity Braf, IC50(off-target)/IC50(MKK4) (BRaf [7])
1 | ++ (100 ≥ ratio > 10) | ++ (100 ≥ ratio > 10) | + (3 ≤ PoC < 30) | 0.1 to 1 | + (10 ≥ ratio > 3) | +++ (IC50(off-target)/IC50(MKK4) > 100) | CCCS(=O)(=O)Nc1ccc(F)c(C(=O)c2c[nH]c3ncc(-c4ccc([N+](=O)[O-])cc4)cc23)c1F [Example 107, N-(2,4-difluoro-3-(5-(4-nitrophenyl)-1H-pyrrolo[2,3-b]pyridine-3-carbonyl)phenyl)propane-1-sulfonamide] | + (10 ≥ IC50(off-target)/IC50(MKK4) > 3) | ◯ (3 ≥ IC50(off-target)/IC50(MKK4))
2 | +++ (Ratio > 100) | +++ (Ratio > 100) | +++ (PoC < 1) | < 0.1 | +++ (Ratio > 100) | +++ (IC50(off-target)/IC50(MKK4) > 100) | O=C(c1ccc(F)c(NS(=O)(=O)CCC(F)(F)F)c1F)c1c[nH]c2ncc(-c3ccc(C(F)(F)F)nc3)cc12 [Example 148, N-(2,6-difluoro-3-(5-(6-(trifluoromethyl)pyridin-3-yl)-1H-pyrrolo[2,3-b]pyridine-3-carbonyl)phenyl)-3,3,3-trifluoropropane-1-sulfonamide] | +++ (IC50(off-target)/IC50(MKK4) > 100) | ++ (100 ≥ IC50(off-target)/IC50(MKK4) > 10)
3 | +++ (Ratio > 100) | +++ (Ratio > 100) | +++ (PoC < 1) | 0.1 to 1 | +++ (Ratio > 100) | +++ (IC50(off-target)/IC50(MKK4) > 100) | O=C(c1cccc(NS(=O)(=O)Cc2ccccc2)c1F)c1c[nH]c2ncc(-c3ccncc3)cc12 [Example 129, N-(2-fluoro-3-(5-(pyridin-4-yl)-1H-pyrrolo[2,3-b]pyridine-3-carbonyl)phenyl)-1-phenylmethanesulfonamide] | + (10 ≥ IC50(off-target)/IC50(MKK4) > 3) | ++ (100 ≥ IC50(off-target)/IC50(MKK4) > 10)
4 | +++ (Ratio > 100) | +++ (Ratio > 100) | +++ (PoC < 1) | 0.1 to 1 | +++ (Ratio > 100) | +++ (IC50(off-target)/IC50(MKK4) > 100) | O=C(c1ccc(F)c(NS(=O)(=O)CCC(F)(F)F)c1F)c1c[nH]c2ncc(-c3cnc(N4CCCCC4)nc3)cc12 [Example 181, N-(2,6-difluoro-3-(5-(2-(piperidin-1-yl)pyrimidin-5-yl)-1H-pyrrolo[2,3-b]pyridine-3-carbonyl)phenyl)-3,3,3-trifluoropropane-1-sulfonamide] | ++ (100 ≥ IC50(off-target)/IC50(MKK4) > 10) | +++ (IC50(off-target)/IC50(MKK4) > 100)
5 | +++ (Ratio > 100) | +++ (Ratio > 100) | +++ (PoC < 1) | 0.1 to 1 | + (10 ≥ ratio > 3) | +++ (IC50(off-target)/IC50(MKK4) > 100) | CCCS(=O)(=O)Nc1ccc(F)c(C(=O)c2c[nH]c3ncc(-c4ccc(C(N)=O)cc4)cc23)c1F [Example 109, 4-(3-(2,6-difluoro-3-(propylsulfonamido)benzoyl)-1H-pyrrolo[2,3-b]pyridin-5-yl)benzamide] | + (10 ≥ IC50(off-target)/IC50(MKK4) > 3) | ◯ (3 ≥ IC50(off-target)/IC50(MKK4))
6 | +++ (Ratio > 100) | +++ (Ratio > 100) | +++ (PoC < 1) | < 0.1 | +++ (Ratio > 100) | +++ (IC50(off-target)/IC50(MKK4) > 100) | C=Cc1ccc(-c2cnc3[nH]cc(C(=O)c4ccc(F)c(NS(=O)(=O)CCC)c4F)c3c2)cn1 [Example 163, N-(2,6-difluoro-3-(5-(6-vinylpyridin-3-yl)-1H-pyrrolo[2,3-b]pyridine-3-carbonyl)phenyl)propane-1-sulfonamide] | ++ (100 ≥ IC50(off-target)/IC50(MKK4) > 10) | ++ (100 ≥ IC50(off-target)/IC50(MKK4) > 10)
7 | +++ (Ratio > 100) | +++ (Ratio > 100) | +++ (PoC < 1) | < 0.1 | +++ (Ratio > 100) | +++ (IC50(off-target)/IC50(MKK4) > 100) | O=C(c1c(F)ccc(NS(=O)(=O)CCC(F)(F)F)c1F)c1c[nH]c2ncc(-c3ccc(N4CCS(=O)(=O)CC4)nc3)cc12 [Example 81, N-(3-(5-(6-(1,1-dioxidothiomorpholino)pyridin-3-yl)-1H-pyrrolo[2,3-b]pyridine-3-carbonyl)-2,4-difluorophenyl)-3,3,3-trifluoropropane-1-sulfonamide] | ++ (100 ≥ IC50(off-target)/IC50(MKK4) > 10) | + (10 ≥ IC50(off-target)/IC50(MKK4) > 3)
8 | +++ (Ratio > 100) | +++ (Ratio > 100) | +++ (PoC < 1) | < 0.1 | +++ (Ratio > 100) | +++ (IC50(off-target)/IC50(MKK4) > 100) | CCCS(=O)(=O)Nc1c(F)ccc(C(=O)c2c[nH]c3ncc(-c4ccc(N(C)C)nc4)cc23)c1F [Example 161, N-(3-(5-(6-(dimethylamino)pyridin-3-yl)-1H-pyrrolo[2,3-b]pyridine-3-carbonyl)-2,6-difluorophenyl)propane-1-sulfonamide] | ++ (100 ≥ IC50(off-target)/IC50(MKK4) > 10) | ++ (100 ≥ IC50(off-target)/IC50(MKK4) > 10)
